Consider 10 compounds from patent US12551451B2, “Compositions and methods for delivering molecules” (SunVax mRNA Therapeutics Inc., priority 2023, dated 2026).

Molecules are shown by their SMILES.

The data set can be described thus: LNP Characteristics (size, PDI, encapsulation efficiency) of LNPs formulated with novel ionizable lipids. It counts as physicochemical. The note with it: LNP formulated with the ionizable lipid, DOPE, Cholesterol, DMG-PEG2000. The method, then:
LNPs formulated using the novel ionizable lipids of the disclosure or control ionizable lipids MC3 and SM-102 were synthesized by mixing the lipid components of the LNP in ethanol at a predetermined molar ratio (ionizable lipid/DOPE/Cholesterol/DMG-PEG2000=30/15/50/1.5) to prepare an organic phase. Sa-mRNA encoding firefly luciferase (LUC) or green fluorescent protein (GFP) was diluted in 50 mM citrate buffer (pH 4.5, Fisher) to prepare an aqueous phase. The sa-mRNA was stored at −80° C. and was thawed on ice prior to use. The ethanol and aqueous phases were mixed at a 1:3 ratio by pipette with the N/P=4.2/1. The resultant LNPs were purified by ultrafiltration (100,000 cut-off, MilliporeSigma™ Amicon™ Ultra-15 Centrifugal Filter Units) at 4° C. prior to transfection into a cell, such as a T-cell.
LNPs formulated using novel ionizable lipids of the disclosure were synthesized using the procedure described in Example 2 and characterized. Table 4 below show the properties of each LNP formulated using a novel ionizable lipid of the disclosure.
On to `CCCCCCCCCN(CCCCCCCCC)CCC(=O)N1CN(C(=O)CCN(CCCCCCCCC)CCCCCCCCC)CN(C(=O)CCN(CCCCCCCCC)CCCCCCCCC)C1` [Lipid E2, 1,1′,1″-(1,3,5-triazinane-1,3,5-triyl)tris(3-(dinonylamino)propan-1-one)], for which the “Avg. Encapsulation Efficiency (EE) %” value worked out at 95.1%, the “Avg. PDI” value came to 0.1 and the “Avg. Size” value was 200 nm.

`CCCCCCCCCCCCCCCC(=O)N(C(CCCCCCCC)CCCCCCCC)C(C(=O)NC1=CCCCC1)C1CCN(CC)CC1` (stereo not drawn) [Lipid P6A2, N-(2-(cyclohex-1-en-1-ylamino)-1-(1-ethylpiperidin-4-yl)-2-oxoethyl)-N-(heptadecan-9-yl)palmitamide]: the “Avg. Encapsulation Efficiency (EE) %” value was found to be 90.4%, the “Avg. PDI” value stood at 0.12 and the “Avg. Size” value was 190.7 nm.

`CCCCCCCCCCCCCC(=O)N(CC(CCCCCCCC)CCCCCCCCCC)C(C(=O)NC1CCCCC1)C1CCN(CC)CC1` (stereo not drawn) [Lipid P28D10]: the “Avg. Encapsulation Efficiency (EE) %” value is 95.5%, the “Avg. PDI” value was determined as 0.10 and the “Avg. Size” value is recorded as 188.0 nm.

Consider `CCCCCCCCCCCCCCCC(=O)N(C(CCCCCCC)CCCCCCC)C(C(=O)NC1CCCCC1)C1CCN(CC)CC1` (stereo not drawn) [Lipid P30A1, N-(2-(cyclohexylamino)-1-(1-ethylpiperidin-4-yl)-2-oxoethyl)-N-(pentadecan-8-yl)palmitamide], for which the “Avg. Encapsulation Efficiency (EE) %” value was 97.8%, the “Avg. PDI” value is 0.11 and the “Avg. Size” value was determined as 176.6 nm.

For `CCCCCCCCCCCCCCCCC(=O)N(C(CCCCCCC)CCCCCCC)C(CC1CCN(C)CC1)C(=O)NC1CCCCC1` (stereo not drawn) [Lipid P30B7, N-(1-(cyclohexylamino)-3-(1-methylpiperidin-4-yl)-1-oxopropan-2-yl)-N-(pentadecan-8-yl)heptadecanamide], the “Avg. Encapsulation Efficiency (EE) %” value was found to be 91.0%, the “Avg. PDI” value stood at 0.10 and the “Avg. Size” value turned out to be 151.6 nm.

Take `CCCCCCCCCCCCCCCCCC(=O)N(C(CCCCCCC)CCCCCCC)C(CC1CCN(C)CC1)C(=O)NC1CCCCC1` (stereo not drawn) [Lipid P30C7, N-(1-(cyclohexylamino)-3-(1-methylpiperidin-4-yl)-1-oxopropan-2-yl)-N-(pentadecan-8-yl)stearamide]: the “Avg. Encapsulation Efficiency (EE) %” value was 93.9%, the “Avg. PDI” value is 0.11 and the “Avg. Size” value was determined as 166.8 nm.

As to `CCCCCCCCCCCCCC(=O)N(C(CCCCCCC)CCCCCCC)C(C(=O)NC1CCCCCC1)C1CCN(CC)CC1` (stereo not drawn) [Lipid P38D1, N-(2-(cycloheptylamino)-1-(1-ethylpiperidin-4-yl)-2-oxoethyl)-N-(pentadecan-8-yl)tetradecanamide], the “Avg. Encapsulation Efficiency (EE) %” value came to 97.4%, the “Avg. PDI” value came out at 0.12 and the “Avg. Size” value worked out at 179.1 nm.

For `CCCCCCCCCCCCCC(=O)N(C(CCCCCCC)CCCCCCC)C(CC1CCN(C)CC1)C(=O)NC1CCCCCC1` (stereo not drawn) [Lipid P38D7, N-(1-(cycloheptylamino)-3-(1-methylpiperidin-4-yl)-1-oxopropan-2-yl)-N-(pentadecan-8-yl)tetradecanamide], the “Avg. Encapsulation Efficiency (EE) %” value is 94.8%, the “Avg. PDI” value was 0.21 and the “Avg. Size” value amounted to 236.3 nm.

Turning to `CCCCCCCCCCCCCC(=O)N(C(CCCCCCCC)CCCCCCCC)C(CC1CCN(C)CC1)C(=O)NC1CCCCCC1` (stereo not drawn) [Lipid P38D8, N-(1-(cycloheptylamino)-3-(1-methylpiperidin-4-yl)-1-oxopropan-2-yl)-N-(heptadecan-9-yl)tetradecanamide], the “Avg. Encapsulation Efficiency (EE) %” value worked out at 95.4%, the “Avg. PDI” value came to 0.18 and the “Avg. Size” value is reported as 186.9 nm.

Consider `CCCCCCCCCCC(=O)N(CC(CCCCCCCC)CCCCCCCCCC)C(CC1CCN(C)CC1)C(=O)NC1CCCCCC1` (stereo not drawn) [Lipid P40B10, N-(1-(cycloheptylamino)-3-(1-methylpiperidin-4-yl)-1-oxopropan-2-yl)-N-(2-octyldodecyl)undecanamide], for which the “Avg. Encapsulation Efficiency (EE) %” value amounted to 95.8%, the “Avg. PDI” value came to 0.14 and the “Avg. Size” value was 189.9 nm.
